Laboratory results: patent publication US6420570B1, “Psoralen compounds” (priority 1993, dated 2002)
Structures can show the parent of a compound that is named as a salt. Where two headings read alike, the source gives them in different places.

Assays:
[1] = test system: TA1537; assay: Ames assay, dark mutagenicity, strain TA1537; details: TA1537 −S9; 10 μg/plt
Description: (§1) In this example the compounds of the present invention are tested for their dark mutagenicity using an Ames assay. The procedures used for the Salmonella mutagenicity test as described in detail by Maron and Ames were followed exactly. Maron, D. M. and B. N. Ames, Mutation Research 113:173 (1983). A brief description for each procedure is given here. The tester strains TA97a, TA98, TA100, TA102, TA1537 and TA1538 were obtained from Dr. Ames. TA97a, TA98, TA1537 and TA1538 are frameshift tester strains. TA100 and TA102 are base-substitution tester strains. Upon receipt each strain was cultured under a variety of conditions to confirm the genotypes specific to the strains.
(§2) The first tests done with the strains were to determine the range of spontaneous reversion for each of the strains. With each mutagenicity experiment the spontaneous reversion of the tester strains to histidine independence was measured and expressed as the number of spontaneous revertants per plate. This served as the background controls.
(§3) For all experiments, the pre-incubation procedure was used. In this procedure one vial of each tester strain was thawed and 20 μL of this culture was added to 6 mL of Oxoid Nutrient Broth #2. This solution was allowed to shake for 10 hours at 37° C. In the pre-incubation procedure, 0.1 mL of this overnight culture was added to each of the required number of sterile test tubes. To half of the tubes 0.5 mL of a 10% S-9 solution containing Aroclor 1254 induced rat liver extract (Molecular Toxicology Inc., Annapolis, MD), and MgCl2, KCl, glucose-6-phosphate, NADP, and sodium phosphate buffer (Sigma, St. Louis. Mo.) were added. To the other half of the tubes 0.5 mL of 0.2M sodium phospate buffer, pH 7.4, was used in place of the S-9 mixture (the -S9 samples) Finally 0.1 mL of the test solution containing either 0.0.1, 0.5, 1, 5, 10, 50, 100, 250, or 500 μg/mL of the test compound was added. The 0.7 mL mixture pre-incubated while shaking for 20 minutes at 37° C. After shaking, 2 mL of molten top agar supplemented with histidine and biotin were added to the 0.7 mL mixture and immediately poured onto a minimal glucose agar plate (volume of base agar was 20 ml.). The top agar was allowed 30 minutes to solidify and then the plates were inverted and incubated for 44 hours at 37° C. After incubation the number of revertant colonies on each plate were counted. […] (“n” represents the number of replicates performed for each data point.)
(§4) Maron and Ames (1983) describe the conflicting views with regard to the statistical treatment of data generated from the test.

[2] = test system: R17; assay: R17 bacteriophage inactivation screen, varying compound concentration; format: cell-based; details: for R17 Log Kill 8 uM / R17 Log Kill 16 uM / R17 Log Kill 32 uM: Table 5, starting titer approx. 7.2 logs
Description: The assay used to predict pathogen inactivation efficiency and to determine nucleic acid binding of the photoreactive binding compounds of the present invention was that in which a bacteriophage, R17, in solution with the desired substrate was irradiated. The ability of the phage to subsequently infect bacteria and inhibit their growth was measured. The bacteriophage was selected for its relatively accessible nucleic acid such that the culture growth inhibition would accurately reflect nucleic acid damage by the test compounds. The bacteriophage assay for nucleic acid binding to test compounds offers a safe and inexpensive procedure to identify compounds likely to display efficient pathogen inactivation. […] An aliquot (0.5 mL) was transferred to a 1.5 mL, snap-top polyethylene tube. An aliquot (0.004-0.040 mL) of the test compound stock solution prepared in water, ethanol or dimethylsulfoxide at 0.80-8.0 mM was added to the tube. Compounds were tested at concentrations between 4 μM and 320 μM. (AMT is commercially available from HRI, Inc., Concord, Calif.; 8-MOP is commercially available from Sigma, St. Louis, Mo.). The tubes were placed in a light device as described in EXAMPLE 1 and irradiated for between 1 and 10 minutes. […] To make the dilutions, a 0.100 mL aliquot of the irradiated solution of phage and test compound was added to the first dilution tube of 0.4 mL of media then 0.020 mL of this solution was added to the second tube of 0.5 mL medium (1:25). The second solution was then diluted serially (1:25) into the remaining tubes. […] After the top agar hardened, the plates were incubated at 37° C. overnight. The plaque forming units were then counted the following morning and the titer of the phage remaining after phototreatment was calculated based on the dilution factors. The following controls were run: the “phage only” in which phage was not treated with test compound and not irradiated (listed as “starting titer” in the tables below); the “UV only” in which the phage was irradiated in the absence of test compound; and the “dark” control in which the phage/test compound solution was not irradiated before it was diluted and plated.

[3] = test system: TA100
Description: as §1, §2, §3, §4

[4] = test system: cell-free virus (HIV); format: cell-based; details: for HIV Log Kill 64 μM / HIV Log Kill 16 μM / HIV Log Kill 32 μM: 1 minute irradiation; for HIV inactivation activity compared with AMT: concentrations of 64 μM of compound or higher
Description: Pathogen inactivation efficiency of several compounds of the present invention was evaluated by examining the ability of the compounds to inactivate cell-free virus (HIV). Inactivation of cell-free HIV was performed as follows.
As in the R17 assay, small aliquots of the compounds listed in TABLES 8 and 9, below, at the concentrations listed in the table, were added to stock HIV-1 to a total of 0.5 mL. The stock HIV (10^5-10^7 plaque forming units/mL) was in DMEM/15% FBS. […] Controls included HIV-1 stock only, HIV-1 plus UVA only, and HIV-1 plus the highest concentration of each psoralen tested, with no UVA. Post irradiation, all samples were stores frozen at −70° C. until assayed for infectivity by a microtiter plaque assay. Aliquots for measurement of residual HIV infectivity in the samples treated with a compound of the present invention were withdrawn and cultured.
Residual HIV infectivity was assayed using an MT-2 infectivity assay. […] The assay medium was 85% DMEM (with a high glucose concentration) containing 100 μg of streptomycin, 100 U of penicillin, 50 μg of gentamicin, and 1 μg of amphotericin B per mL, 15% FBS and 2 μg of Polybrene (Sigma Chemical Co., St. Louis, Mo.) per mL. Test and control samples from the inactivation procedure were diluted in 50% assay medium and 50% normal human pooled plasma. The samples were serially diluted directly in 96-well plates (Corning Glass Works, corning, N.Y.). The plates were mixed on an oscillatory shaker for 30 seconds and incubated at 37° C. in a 5% CO2 atmosphere for 1 to 18 hours. […] After an additional 1 hour of incubation at 37° C. in 5% CO2, 0.075 mL of assay medium containing 1.6% SeaPlaque agarose (FMC Bioproducts, Rockland, me.) and prewarmed to 38.5° C. was added to each well. The plates were kept at 37° C. for a few minutes until several plates had accumulated and then centrifuged in plate carriers at 600×g for 20 minutes in a centrifuge precooled to 10° C. In the centrifuge, cell monolayers formed prior to gelling of the agarose layer. The plates were incubated for 5 days at 37° C. in 5% CO2 and stained by the addition of 0.05 mL of 50 μg/mL propidium iodide (Sigma Chemical Co.) in phosphate-buffered saline (pH 7.4) to each well. After 24 to 48 hours, the red fluorescence-stained microplaques were visualized by placing the plates on an 8,000 μW/cm^2 304 nm UV light box (Fotodyne, Inc., New Berlin, Wis.). The plaques were counted at a magnification of ×20 to ×25 through a stereomicroscope. “n” represents the number of runs for which the data point is an average.

[5] = test system: TA1538; assay: Ames assay, dark mutagenicity, strain TA1538; details: TA1538; in the presence of S9
Description: as §1, §2, §3, §4

[6] = test system: Salmonella tester strains; assay: Ames assay, dark mutagenicity, overall over tester strains; details: two-fold or greater increase in revertants above background and dose dependent response
Description: as §1, §2, §3, §4

[7] = test system: R17; assay: R17 inactivation at constant concentration, varying doses of UV light; format: cell-based, bacteriophage R17; details: UV doses 1.0 to 3.0 J/cm^2, FIGS. 11-17
Description: Compounds of the present invention were also tested at a constant concentration for varying doses of UV light. Three sets of 1.5 mL tubes were prepared containing 0.6 mL aliquots of R17 in DMEM (prepared as described above). The compound tested was added at the desired concentration and the samples were vortexed. The samples were then irradiated at intervals of 1.0 J/cm^2, until 3.0 J/cm^2 was reached. Between each 1.0 J/cm^2 interval, 100 μL was removed from each sample and placed in the first corresponding dilution tube, then five sequential dilutions were performed for each compound tested, at all 3 irradiation doses, as described above in this example.
Then 50 μL of Hfr 3000 bacteria was added to each tube, 3 mL of top agar was added and the tube contents were vortexed. The contents of each tube was poured into its own LB plate and the plates were incubated overnight at 37° C. Plaques were counted by visual inspection the following morning.

[8] = Table 8, HIV starting titer approximately 5 logs
[9] = Table 6, 1 minute irradiation = 1.2 J/cm^2, starting titer approx. 7.1 logs
[10] = Table 7, 1 minute irradiation, starting titer approx. 7.1 logs
[11] = Table 9, HIV starting titer approximately 5.4 logs

SMILES: Nc1c2ccccc2nc2ccccc12 [9-Aminoacridine, reference compound]
- revertant colonies per plate, positive control [1]: 284

SMILES: Cc1oc2c(C)c3oc(=O)cc(C)c3cc2c1CNCCN [Compound 1, 4′-(4-amino-2-aza)butyl-4,5′,8-trimethylpsoralen dihydrochloride]
- logs killed in the "dark" control ([2]; Table 3, runs 1-3, at most): ≤ 0.1 logs
- R17 inactivation efficiency compared with 8-MOP ([2]; Table 4): much R17 inactivatiotn efficiency than does 8-MOP
- R17 Log Kill 8 uM ([2]; 8 uM, 1 minute irradiation): 1.7 log
- R17 Log Kill 16 uM ([2]; 1 minute irradiation): 2.8 log
- R17 Log Kill 32 uM ([2]; 1 minute irradiation): 5.3 log
- LOG TITER ([2]; experiment 1, 32 μM cmpd, 1′ uva, phage only 7.7): <1 log
- LOG TITER ([2]; experiment 1, 32 μM cmpd, 10′ uva, phage only 7.7): <1 log
- LOG TITER ([2]; experiment 1, compound only (32 μM), not irradiated, phage only 7.7): 7.6 log
- LOG TITER ([2]; experiment 2, 3.2 μM cmpd, 1′ uva, phage only 7.8): 6.9 log
- LOG TITER ([2]; experiment 2, 3.2 μM cmpd, 10′ uva, phage only 7.8): 6.1 log
- LOG TITER ([2]; experiment 2, compound only (3.2 μM), not irradiated, phage only 7.8): 7.7 log
- LOG TITER ([2]; experiment 3, 4 μM cmpd, 1′ uva, phage only 7.3): 6.3 log
- LOG TITER ([2]; experiment 3, 8 μM cmpd, 1′ uva, phage only 7.3): 5.6 log
- LOG TITER ([2]; experiment 3, 16 μM cmpd, 1′ uva, phage only 7.3): 3.9 log
- LOG TITER ([2]; experiment 3, compound only (16 μM), not irradiated, phage only 7.3): 7.3 log
- mutation in the TA100 strain ([3]; TA100, with and without S9): only in the absence of S9
- HIV Log Kill 64 μM [4, 8]: 2.1 log
- dose at which the only mutagenic response (weak frameshift mutagen) was detected [5]: 5 μg/plate

SMILES: Cc1oc2c(C)c3oc(=O)cc(C)c3cc2c1COCCN [Compound 2, 4′-(4-Amino-2-oxa)butyl-4,5′,8-trimiethylpsoralen Hydrochloride]
- HIV Log Kill 16 μM [4, 8]: 1.4 log
- HIV Log Kill 32 μM [4, 8]: 3.8 log
- HIV Log Kill 64 μM [4, 8]: >4.5 log
- HIV inactivation activity compared with AMT [4]: significantly more active than AMT

SMILES: Cc1oc2c(C)c3oc(=O)cc(C)c3cc2c1CCN [Compound 3, 4′-(2-aminoethyl)-4,5′,8-trimethylpsoralen Hydrochloride]
- mutagenicity as defined by the Ames test [6]: no mutagenicity
- R17 Log Kill 8 uM ([2]; 8 uM, 1 minute irradiation): >6.2 log
- R17 Log Kill 16 uM ([2]; 1 minute irradiation): >6.2 log
- R17 Log Kill 32 uM ([2]; 1 minute irradiation): >6.2 log
- R17 log kill 8 uM ([2]; Table 6, 8 uM, 1 minute irradiation = 1.2 J/cm^2, starting titer approx. 7.1 logs): 5.6 log
- R17 log kill 16 uM [2, 9]: >6.1 log
- HIV Log Kill 32 μM [4, 8]: 2.7 log
- HIV Log Kill 64 μM [4, 8]: >3.8 log
- HIV inactivation activity compared with AMT [4]: significantly more active than AMT

SMILES: Cc1oc2c(C)c3oc(=O)cc(C)c3cc2c1CNCCCN [Compound 5, 4′-(5-amino-2-aza)pentyl-4,5′,8-trimethylpsoralen dihydrochloride]
- R17 log kill 16 uM [2, 9]: 5.6 log
- R17 log kill 32 uM [2, 9]: >6.1 log
- R17 log kill 64 uM [2, 9]: >6.1 log
- HIV Log Kill 16 μM [4, 8]: 0.9 log
- HIV Log Kill 32 μM [4, 8]: 1.3 log
- HIV Log Kill 64 μM [4, 8]: >2.6 log

SMILES: Cc1oc2c(C)c3oc(=O)cc(C)c3cc2c1COCCOCCN [Compound 7, 4′-(7-Amino-2,5-oxa)heptyl-4,5′,8-trimethylpsoralen Hydrochloride]
- R17 log kill 16 uM [2, 10]: >6 log
- R17 log kill 32 uM [2, 10]: >6 log
- R17 log kill 64 uM [2, 10]: >6 log
- HIV Log Kill 16 μM [4, 8]: 0.8 log
- HIV Log Kill 32 μM [4, 8]: 2.1 log
- HIV Log Kill 64 μM [4, 8]: 3.5 log

SMILES: Cc1oc2c(C)c3oc(=O)cc(C)c3cc2c1COCCOCCNCCCCN.Cl.Cl [Compound 8, 4′-(12-Amino-8-aza-2,5-dioxa)dodecyl-4,5′,8-trimethylpsoralen Dihydrochloride]
- HIV Log Kill 16 μM [4, 8]: 1.1 log
- HIV Log Kill 32 μM [4, 8]: 1.9 log
- HIV Log Kill 64 μM [4, 8]: 3.7 log

SMILES: Cc1oc2c(C)c3oc(=O)cc(C)c3cc2c1CNCCCOCCCCOCCN [Compound 9]
- HIV Log Kill 16 μM [4, 11]: 0.8 log
- HIV Log Kill 32 μM [4, 11]: 1.4 log
- HIV Log Kill 64 μM [4, 11]: 2.7 log

SMILES: Cc1oc2c(C)c3oc(=O)cc(C)c3cc2c1CNCCCCCN.Cl.Cl [Compound 10, 4′-(7-amino-2-aza)heptyl-4,5′,8-trimethylpsoralen dihydrochloride]
- R17 inactivation compared with AMT [7]: more efficient at inactivating R17 than was AMT
- HIV Log Kill 16 μM [4, 11]: 2.0 log
- HIV Log Kill 32 μM [4, 11]: >3.5 log
- HIV Log Kill 64 μM [4, 11]: >3.5 log

SMILES: Cc1oc2c(C)c3oc(=O)cc(C)c3cc2c1CNCCCNCCCN [Compound 12]
- R17 inactivation compared with AMT [7]: more efficient at inactivating R17 than was AMT
- HIV Log Kill 16 μM [4, 11]: 0.4 log
- HIV Log Kill 32 μM [4, 11]: 0.8 log
- HIV Log Kill 64 μM [4, 11]: 1.3 log

SMILES: Cc1oc2c(C)c3oc(=O)cc(C)c3cc2c1CNCCCNCCCCNCCCN.Cl.Cl.Cl.Cl [Compound 15, 4′-(14-Amino-2,6,11-triaza)tetradecyl-4,5′,8-trimethylpsoralen Tetrahydrochloride]
- R17 inactivation compared with AMT [7]: more efficient at inactivating R17 than was AMT

SMILES: Cc1cc(=O)oc2c(C)c3oc(CNCCCCN)c(C)c3cc12.Cl.Cl [Compound 17, 5′-(6-Amino-2-aza)hexyl-4,4′,8-trimethylpsoralen Dihydrochloride]
- R17 inactivation compared with AMT [7]: more efficient at inactivating R17 than was AMT
- HIV Log Kill 16 μM [4, 11]: 1.2 log
- HIV Log Kill 64 μM [4, 11]: 3.4 log

SMILES: Cc1cc(=O)oc2c(C)c3oc(COCCN)c(C)c3cc12 [Compound 18]
- HIV Log Kill 16 μM [4, 11]: 1.0 log
- HIV Log Kill 32 μM [4, 11]: 1.0 log
- HIV Log Kill 64 μM [4, 11]: 3.1 log

SMILES: [N-]=[N+]=[N-] [sodium azide, reference compound]
- revertant colonies per plate, positive control ([3]; TA100 −S9, 1.5 μg/plate): 965
